Experimental data reported in PMC12766724, “Synthesis, Anthelmintic Activity, and Mechanism of Action of 5‑Aryl‑1H‑indoles” (Journal of Agricultural and Food Chemistry, 2025).

Experiments:
[1] = system: Skin fibroblasts (BJ); assay: Resazurin assay, 3-day treatment; format: cell-based, human; details: for Average viability (signal intensity relative to control): BJ
[2] = system: age unsynchronized Ditylenchus destructor; assay: Motility on WMicrotracker ONE; format: in vivo
Outline: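 Age-unsynchronized populations of Ditylenchus destructor were maintained following a previously described protocol. Their motility was measured on the WMicrotracker ONE platform using previously published methods. The instrument scores the activity of small animals by counting how often infrared light microbeams passing through the wells of a microtiter plate are interrupted. Activity was recorded before treatment and during exposure to compounds.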

[3] = system: xL3 H. contortus; assay: Motility on WMicrotracker ONE; format: in vivo; details: 48 h; for reduction of movement rates: 50 µM
Procedure: H. contortus L3 were obtained by culturing feces collected from experimentally infected sheep (located in the facilities of the Instituto de Ganadera de Montaa, Leon, Spain) in aerated and humidified closed containers, which were placed in a climatic chamber at 28 °C for 5 days. Larvae were recovered by immersing the feces in tap water for 5 h to stimulate migration. The suspension was then filtered through a 20 μm sieve. Subsequently, larvae were collected using a Baermann apparatus with a 30 μm mesh overnight at 23 °C. Exsheathment of L3 larvae was performed by incubating them in 0.1% (v/v) sodium hypochlorite for 1 h at room temperature on a rotator, followed by three washes with tap water to remove residual bleach.
The effect of compounds on motility of H. contortus, D. destructor, and H. schachtii was evaluated using the WMicrotracker ONE platform according to previously published protocols. ,
We mostly focused on the three derivatives containing a halogen substitution in the 4-position of the phenyl ring, namely, i-19, i-20, and i-21. An initial experiment was also conducted with a representative compound with an aliphatic chain, namely, i-12, in which we observed only a relatively small effect on the motility of larvae (approximately 30% decrease in motility of nematodes treated with 100 μM of the compound after 48 h in comparison to vehicle-treated worms; Figure S2.7). […] The effect was apparent starting at 3 h and beyond. At 48 h, the latest time point was tested, and the movement rates of nematodes exposed to 50 μM of i-19, i-20, and i-21 were reduced by 76%, 80%, and 82%, respectively.

[4] = system: Arabidopsis thaliana Col-0; assay: Germination rate and phytotoxicity; format: in vivo; details: for average fraction of germinated seeds: 5 DPS; for main root length / plant weight: 10 DPS
Outline: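 Sterilized Col-0 seeds sown on 1/2 MS with compounds at 5, 10, 50 and 100 μM in 0.3% DMSO (DMSO mock), grown under 16 h light/8 h dark at 22 °C/20 °C. Germination rate scored at day 5; primary root length and seedling weight after further 5 days.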

[5] = system: Heterodera schachtii second-stage juveniles (J2); assay: Motility on WMicrotracker ONE; format: in vivo
Outline: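 Second-stage juveniles of H. schachtii, reared on in vitro mustard roots on modified KNOP medium, were exposed to compounds in microtiter wells. Motility was scored as activity counts, i.e. interruptions of infrared microbeams passing through each well.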

[6] = system: C. elegans N2 wild-type; assay: Chitinase assay (reproductive capacity); format: in vivo, Caenorhabditis elegans; details: Caenorhabditis elegans
Outline: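 Wild-type N2 L1 larvae were exposed to compounds for 4 days, then populations were examined microscopically and Chitinase activity, released at hatching, was measured as a read-out of reproduction. Failure from acute or reproductive toxicity or developmental defects is detected.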

[7] = 10 µM group, initial (prior to the treatment)
[8] = 50 µM group, initial (prior to the treatment)
[9] = 100 µM group, initial (prior to the treatment)

| Compound | Average viability (signal intensity relative to control) ([1]; 10 µM) | Average viability (signal intensity relative to control) ([1]; 20 µM) | Average viability (signal intensity relative to control) ([1]; 40 µM) | average activity counts [2, 7] | average activity counts ([2]; 10 µM, 48 h) | average activity counts ([2]; 10 µM, 72 h) | average activity counts [2, 8] | average activity counts ([2]; 50 µM, 48 h) | average activity counts ([2]; 50 µM, 72 h) | average activity counts [2, 9] | average activity counts ([2]; 100 µM, 48 h) | average activity counts ([2]; 100 µM, 72 h) | average fraction of germinated seeds ([4]; 5 µM) | main root length ([4]; 5 µM) | plant weight ([4]; 5 µM) | average fraction of germinated seeds ([4]; 10 µM) | main root length ([4]; 10 µM) | plant weight ([4]; 10 µM) | average fraction of germinated seeds ([4]; 50 µM) | main root length ([4]; 50 µM) | also measured |
| --- | --- | --- | --- | --- | --- | --- | --- | --- | --- | --- | --- | --- | --- | --- | --- | --- | --- | --- | --- | --- | --- |
| CCCOc1cccc(-c2ccc3[nH]ccc3c2)c1 [i-12] | 0.96 ± 0.01 | 1.04 ± 0.05 | 0.96 ± 0.03 | 220 | 197 | 218 | 201 | 186 | 202 | 235 | 207 | 202 | 0.96 | 37.25 mm | 32.51 mg | 0.93 | 38.66 mm | 34.91 mg | 0.93 | 35.82 mm | decrease in motility in comparison to vehicle-treated worms ([3]; 100 µM): approximately 30%; plant weight ([4]; 50 µM): 27.55 mg; average activity counts [5, 7]: 192; average activity counts ([5]; 10 µM, 48 h): 200; average activity counts ([5]; 10 µM, 72 h): 158; average activity counts [5, 8]: 176; average activity counts ([5]; 50 µM, 48 h): 195; average activity counts ([5]; 50 µM, 72 h): 136; average activity counts [5, 9]: 195; average activity counts ([5]; 100 µM, 48 h): 166; average activity counts ([5]; 100 µM, 72 h): 177; IC50 [6]: 9.6 ± 0.9 µM |
| CCCOc1ccc(-c2ccc3[nH]ccc3c2)cc1 [i-13] | 0.97 ± 0.01 | 1 ± 0.05 | 0.98 ± 0.03 | 204 | 200 | 207 | 221 | 211 | 219 | 239 | 211 | 228 | 0.98 | 40.24 mm | 37.8 mg | 0.93 | 39.42 mm | 36.95 mg | 0.91 | 36.26 mm | plant weight ([4]; 50 µM): 26.29 mg; average activity counts [5, 7]: 166; average activity counts ([5]; 10 µM, 48 h): 159; average activity counts ([5]; 10 µM, 72 h): 141; average activity counts [5, 8]: 192; average activity counts ([5]; 50 µM, 48 h): 183; average activity counts ([5]; 50 µM, 72 h): 163; average activity counts [5, 9]: 192; average activity counts ([5]; 100 µM, 48 h): 144; average activity counts ([5]; 100 µM, 72 h): 150; IC50 [6]: 7.09 ± 0.72 µM |
| Clc1ccc(-c2ccc3[nH]ccc3c2)cc1 [i-19] | 0.98 ± 0.02 | 1.02 ± 0.06 | 1 ± 0.03 | 226 | 227 | 232 | 239 | 85 | 67 | 233 | 113 | 88 | 0.93 | 38.83 mm | 32.28 mg | 0.96 | 37.74 mm | 30.72 mg | 0.97 | 33.27 mm | effect on the viability of fibroblasts ([1]; up to 40 μM): no effect; decrease of mean activity counts ([2]; 100 µM, 72 h): 62%; reduction of movement rates [3]: 76%; plant weight ([4]; 50 µM): 24.85 mg; average fraction of germinated seeds ([4]; 100 µM): 0.93; main root length ([4]; 100 µM): 19.96 mm; plant weight ([4]; 100 µM): 15.22 mg; average activity counts [5, 7]: 190; average activity counts ([5]; 10 µM, 48 h): 179; average activity counts ([5]; 10 µM, 72 h): 192; average activity counts [5, 8]: 183; average activity counts ([5]; 50 µM, 48 h): 90; average activity counts ([5]; 50 µM, 72 h): 18; average activity counts [5, 9]: 195; average activity counts ([5]; 100 µM, 48 h): 121; average activity counts ([5]; 100 µM, 72 h): 30; decrease in mean activity counts ([5]; 100 µM, 72 h): 85%; IC50 [6]: 6.67 ± 0.6 µM |
| Fc1ccc(-c2ccc3[nH]ccc3c2)cc1 [i-20] | 0.96 ± 0.01 | 0.98 ± 0.02 | 0.96 ± 0.03 | 215 | 200 | 187 | 223 | 84 | 64 | 226 | 2 | 2 | 0.96 | 39.53 mm | 30.62 mg | 0.91 | 34.00 mm | 27.14 mg | 0.96 | 31.49 mm | decrease of mean activity counts ([2]; 100 µM, 72 h): 99%; reduction of movement rates [3]: 80%; plant weight ([4]; 50 µM): 24.67 mg; average fraction of germinated seeds ([4]; 100 µM): 0.95; main root length ([4]; 100 µM): 25.82 mm; plant weight ([4]; 100 µM): 16.94 mg; average activity counts [5, 7]: 165; average activity counts ([5]; 10 µM, 48 h): 169; average activity counts ([5]; 10 µM, 72 h): 176; average activity counts [5, 8]: 174; average activity counts ([5]; 50 µM, 48 h): 81; average activity counts ([5]; 50 µM, 72 h): 27; average activity counts [5, 9]: 180; average activity counts ([5]; 100 µM, 48 h): 4; average activity counts ([5]; 100 µM, 72 h): 5; decrease in mean activity counts ([5]; 100 µM, 72 h): 97%; IC50 [6]: 9.05 ± 0.62 µM |
| FC(F)(F)Oc1ccc(-c2ccc3[nH]ccc3c2)cc1 [i-21] | 0.94 ± 0.02 | 0.96 ± 0.04 | 0.87 ± 0.03 | 227 | 220 | 183 | 223 | 172 | 139 | 221 | 158 | 94 | 0.98 | 41.56 mm | 34.37 mg | 1.00 | 42.21 mm | 36.56 mg | 1.00 | 35.82 mm | decrease of mean activity counts ([2]; 100 µM, 72 h): 57%; reduction of movement rates [3]: 82%; plant weight ([4]; 50 µM): 24.65 mg; average fraction of germinated seeds ([4]; 100 µM): 0.96; main root length ([4]; 100 µM): 30.90 mm; plant weight ([4]; 100 µM): 21.97 mg; average activity counts [5, 7]: 175; average activity counts ([5]; 10 µM, 48 h): 170; average activity counts ([5]; 10 µM, 72 h): 146; average activity counts [5, 8]: 177; average activity counts ([5]; 50 µM, 48 h): 142; average activity counts ([5]; 50 µM, 72 h): 102; average activity counts [5, 9]: 187; average activity counts ([5]; 100 µM, 48 h): 150; average activity counts ([5]; 100 µM, 72 h): 104; IC50 [6]: 8.58 ± 0.99 µM |
